# Results from patent US8952024B2, “Herbicidal pyrimidone derivatives” (E I du Pont de Nemours and Company, priority 2009, dated 2015).
# How the values were obtained:
# Format in all cases: in vivo
# [1] = test system: large crabgrass (Digitaria sanguinalis); assay: Test A pre-/postemergence plant response
# Summary of the method: (§1)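 Seeds planted in loam soil/sand blend; test chemicals in non-phytotoxic solvent mixture with surfactant applied as directed soil spray preemergence and, concurrently, postemergence to plants 2–10 cm tall at one- to two-leaf stage. Greenhouse ~10 days; visual injury vs untreated controls, 0 (no effect) to 100 (complete control).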
# [2] = test system: giant foxtail (Setaria faberii); assay: Test A pre-/postemergence plant response
# Summary of the method: as §1
# [3] = test system: wheat (Triticum aestivum); assay: Test A pre-/postemergence plant response
# Summary of the method: as §1
# [4] = test system: barnyardgrass (Echinochloa crus-galli); assay: Test A pre-/postemergence plant response
# Summary of the method: as §1
# [5] = test system: pigweed (Amaranthus retroflexus); assay: Test A pre-/postemergence plant response
# Summary of the method: as §1
# [6] = test system: velvetleaf (Abutilon theophrasti); assay: Test A pre-/postemergence plant response
# Summary of the method: as §1
# corn (Zea mays) = assay: Test A pre-/postemergence plant response
# Summary of the method: as §1
# [7] = test system: morningglory (Ipomoea spp.); assay: Test A pre-/postemergence plant response
# Summary of the method: as §1
# [8] = test system: winter barley (Hordeum vulgare); assay: Test B postemergence plant response; settings: Postemergence; for Barley plant response rating: 250 g ai/ha, scale 0 to 100
# Summary of the method: (§2)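 Visual ratings from 0 (no effect) to 100 (complete control), made against controls 13–15 days after treatment, kept in a greenhouse. Compounds were applied postemergence to potted plants at the 1- to 4-leaf stage (2–18 cm).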
# [9] = test system: windgrass (Apera spica-venti); assay: Test B postemergence plant response; settings: Postemergence; for Windgrass plant response rating: 250 g ai/ha, scale 0 to 100
# Summary of the method: as §2
# [10] = test system: canarygrass (Phalaris minor); assay: Test B postemergence plant response; settings: Postemergence; for Canarygrass plant response rating: 250 g ai/ha, scale 0 to 100
# Summary of the method: as §2
# [11] = test system: chickweed (Stellaria media); assay: Test B postemergence plant response; settings: Postemergence; for Chickweed plant response rating: 250 g ai/ha, scale 0 to 100
# Summary of the method: as §2
# [12] = Postemergence, 125 g ai/ha, visual injury, 0 to 100 scale (0 no effect, 100 complete control), approx. ten days
# [13] = Postemergence, 500 g ai/ha, 0 to 100 scale, 0 = no effect, 100 = complete control, approx. ten days
# [14] = Preemergence, 125 g ai/ha, 0 to 100 scale, 0 = no effect, 100 = complete control
# [15] = Preemergence, 500 g ai/ha, visual injury, 0 to 100 scale (0 no effect, 100 complete control), approx. ten days
# [16] = 31 g ai/ha, scale 0 to 100 (0 no effect, 100 complete control)
# [17] = 62 g ai/ha, scale 0 (no effect) to 100 (complete control), 13 to 15 days
# [18] = 125 g ai/ha, scale 0 to 100 (0 no effect, 100 complete control), 13 to 15 days
# [19] = 125 g ai/ha, visual rating after 13 to 15 days, scale 0 (no effect) to 100 (complete control)
smiles,measurement,setting,value
Cc1ccc(-n2c(-c3ccccc3)ncc(C(=O)C3=C(O)CCCC3=O)c2=O)cc1 [Compound 8],"Crabgrass, Large plant response rating",[1]; [12],80
same,"Plant response rating, Crabgrass, Large",[1]; [13],90
same,"Plant response rating, Crabgrass, Large",[1]; [14],40
same,"Plant response rating, Crabgrass, Large",[1]; [15],100
same,"Foxtail, Giant plant response rating",[2]; [12],90
same,"Plant response rating, Foxtail, Giant",[2]; [13],100
same,"Plant response rating, Foxtail, Giant",[2]; [14],40
same,"Plant response rating, Foxtail, Giant",[2]; [15],90
same,Wheat plant response rating,[3]; [12],10
same,"Plant response rating, Wheat",[3]; [13],50
same,"Plant response rating, Wheat",[3]; [14],0
same,"Plant response rating, Wheat",[3]; [15],20
same,Barnyardgrass plant response rating,[4]; [12],90
same,"Plant response rating, Barnyardgrass",[4]; [13],100
same,"Plant response rating, Barnyardgrass",[4]; [14],10
same,"Plant response rating, Barnyardgrass",[4]; [15],80
same,Pigweed plant response rating,[5]; [12],100
same,"Plant response rating, Pigweed",[5]; [13],100
same,"Plant response rating, Pigweed",[5]; [14],90
same,"Plant response rating, Pigweed",[5]; [15],90
same,Velvetleaf plant response rating,[6]; [12],100
same,"Plant response rating, Velvetleaf",[6]; [13],100
same,"Plant response rating, Velvetleaf",[6]; [14],50
same,"Plant response rating, Velvetleaf",[6]; [15],90
same,Corn plant response rating,corn (Zea mays); [12],10
same,"Plant response rating, Corn",corn (Zea mays); [13],50
same,"Plant response rating, Corn",corn (Zea mays); [14],0
same,"Plant response rating, Corn",corn (Zea mays); [15],20
same,Morningglory plant response rating,[7]; [12],90
same,"Plant response rating, Morningglory",[7]; [13],100
same,"Plant response rating, Morningglory",[7]; [14],0
same,"Plant response rating, Morningglory",[7]; [15],70
same,"Plant response rating, Barley",[8]; [16],0
same,"Plant response rating, Barley",[8]; [17],0
same,"Plant response rating, Barley",[8]; [18],5
same,Barley plant response rating,[8],20
same,"Plant response rating, Windgrass",[9]; [16],5
same,"Plant response rating, Windgrass",[9]; [17],20
same,"Plant response rating, Windgrass",[9]; [19],30
same,Windgrass plant response rating,[9],40
same,"Plant response rating, Canarygrass",[10]; [16],20
same,"Plant response rating, Canarygrass",[10]; [17],50
same,"Plant response rating, Canarygrass",[10]; [19],70
same,Canarygrass plant response rating,[10],85
same,"Plant response rating, Chickweed",[11]; [16],98
same,"Plant response rating, Chickweed",[11]; [17],100
same,"Plant response rating, Chickweed",[11]; [19],100
same,Chickweed plant response rating,[11],100
Cc1ccccc1-n1c(-c2ccccc2)ncc(C(=O)C2=C(O)CCCC2=O)c1=O [Compound 12],"Crabgrass, Large plant response rating",[1]; [12],90
same,"Plant response rating, Crabgrass, Large",[1]; [13],100
same,"Plant response rating, Crabgrass, Large",[1]; [14],50
same,"Plant response rating, Crabgrass, Large",[1]; [15],90
same,"Foxtail, Giant plant response rating",[2]; [12],90
same,"Plant response rating, Foxtail, Giant",[2]; [13],90
same,"Plant response rating, Foxtail, Giant",[2]; [14],20
same,"Plant response rating, Foxtail, Giant",[2]; [15],90
same,Wheat plant response rating,[3]; [12],0
same,"Plant response rating, Wheat",[3]; [13],0
same,"Plant response rating, Wheat",[3]; [14],0
same,"Plant response rating, Wheat",[3]; [15],0
same,Barnyardgrass plant response rating,[4]; [12],90
same,"Plant response rating, Barnyardgrass",[4]; [13],90
same,"Plant response rating, Barnyardgrass",[4]; [14],10
same,"Plant response rating, Barnyardgrass",[4]; [15],70
same,Pigweed plant response rating,[5]; [12],100
same,"Plant response rating, Pigweed",[5]; [13],100
same,"Plant response rating, Pigweed",[5]; [14],80
same,"Plant response rating, Pigweed",[5]; [15],100
same,Velvetleaf plant response rating,[6]; [12],100
same,"Plant response rating, Velvetleaf",[6]; [13],100
same,"Plant response rating, Velvetleaf",[6]; [14],70
same,"Plant response rating, Velvetleaf",[6]; [15],90
same,Corn plant response rating,corn (Zea mays); [12],40
same,"Plant response rating, Corn",corn (Zea mays); [13],80
same,"Plant response rating, Corn",corn (Zea mays); [14],0
same,"Plant response rating, Corn",corn (Zea mays); [15],0
same,Morningglory plant response rating,[7]; [12],100
same,"Plant response rating, Morningglory",[7]; [13],100
same,"Plant response rating, Morningglory",[7]; [14],30
same,"Plant response rating, Morningglory",[7]; [15],90
same,"Plant response rating, Barley",[8]; [16],0
same,"Plant response rating, Barley",[8]; [17],0
same,"Plant response rating, Barley",[8]; [18],0
same,Barley plant response rating,[8],0
same,"Plant response rating, Windgrass",[9]; [16],10
same,"Plant response rating, Windgrass",[9]; [17],40
same,"Plant response rating, Windgrass",[9]; [19],45
same,Windgrass plant response rating,[9],50
same,"Plant response rating, Canarygrass",[10]; [16],0
same,"Plant response rating, Canarygrass",[10]; [17],5
same,"Plant response rating, Canarygrass",[10]; [19],5
same,Canarygrass plant response rating,[10],40
same,"Plant response rating, Chickweed",[11]; [16],100
same,"Plant response rating, Chickweed",[11]; [17],100
same,"Plant response rating, Chickweed",[11]; [19],100
same,Chickweed plant response rating,[11],100
O=C1CCCC(O)=C1C(=O)c1cnc(-c2ccccc2)n(-c2ccccc2F)c1=O [Compound 26],"Crabgrass, Large plant response rating",[1]; [12],70
same,"Plant response rating, Crabgrass, Large",[1]; [13],90
same,"Plant response rating, Crabgrass, Large",[1]; [14],20
same,"Plant response rating, Crabgrass, Large",[1]; [15],90
same,"Foxtail, Giant plant response rating",[2]; [12],50
same,"Plant response rating, Foxtail, Giant",[2]; [13],90
same,"Plant response rating, Foxtail, Giant",[2]; [14],30
same,"Plant response rating, Foxtail, Giant",[2]; [15],70
same,Wheat plant response rating,[3]; [12],0
same,"Plant response rating, Wheat",[3]; [13],0
same,"Plant response rating, Wheat",[3]; [14],0
same,"Plant response rating, Wheat",[3]; [15],0
same,Barnyardgrass plant response rating,[4]; [12],30
same,"Plant response rating, Barnyardgrass",[4]; [13],80
same,"Plant response rating, Barnyardgrass",[4]; [14],0
same,"Plant response rating, Barnyardgrass",[4]; [15],60
same,Pigweed plant response rating,[5]; [12],90
same,"Plant response rating, Pigweed",[5]; [13],100
same,"Plant response rating, Pigweed",[5]; [14],60
same,"Plant response rating, Pigweed",[5]; [15],100
same,Velvetleaf plant response rating,[6]; [12],100
same,"Plant response rating, Velvetleaf",[6]; [13],100
same,"Plant response rating, Velvetleaf",[6]; [14],20
same,"Plant response rating, Velvetleaf",[6]; [15],100
same,Corn plant response rating,corn (Zea mays); [12],0
same,"Plant response rating, Corn",corn (Zea mays); [13],20
same,"Plant response rating, Corn",corn (Zea mays); [14],0
same,"Plant response rating, Corn",corn (Zea mays); [15],0
same,Morningglory plant response rating,[7]; [12],50
same,"Plant response rating, Morningglory",[7]; [13],80
same,"Plant response rating, Morningglory",[7]; [14],10
same,"Plant response rating, Morningglory",[7]; [15],70
same,"Plant response rating, Barley",[8]; [16],0
same,"Plant response rating, Barley",[8]; [17],0
same,"Plant response rating, Barley",[8]; [18],0
same,Barley plant response rating,[8],0
same,"Plant response rating, Windgrass",[9]; [16],10
same,"Plant response rating, Windgrass",[9]; [17],30
same,"Plant response rating, Windgrass",[9]; [19],40
same,Windgrass plant response rating,[9],60
same,"Plant response rating, Canarygrass",[10]; [16],20
same,"Plant response rating, Canarygrass",[10]; [17],30
same,"Plant response rating, Canarygrass",[10]; [19],50
same,Canarygrass plant response rating,[10],60
same,"Plant response rating, Chickweed",[11]; [16],40
same,"Plant response rating, Chickweed",[11]; [17],50
same,"Plant response rating, Chickweed",[11]; [19],85
same,Chickweed plant response rating,[11],85
Cc1cc(C)cc(-n2c(-c3ccccc3)ncc(C(=O)C3=C(O)CCCC3=O)c2=O)c1 [Compound 33],"Crabgrass, Large plant response rating",[1]; [12],70
same,"Plant response rating, Crabgrass, Large",[1]; [13],100
same,"Plant response rating, Crabgrass, Large",[1]; [14],80
same,"Plant response rating, Crabgrass, Large",[1]; [15],100
same,"Foxtail, Giant plant response rating",[2]; [12],60
same,"Plant response rating, Foxtail, Giant",[2]; [13],100
same,"Plant response rating, Foxtail, Giant",[2]; [14],30
same,"Plant response rating, Foxtail, Giant",[2]; [15],90
same,Wheat plant response rating,[3]; [12],0
same,"Plant response rating, Wheat",[3]; [13],20
same,"Plant response rating, Wheat",[3]; [14],0
same,"Plant response rating, Wheat",[3]; [15],10
same,Barnyardgrass plant response rating,[4]; [12],80
same,"Plant response rating, Barnyardgrass",[4]; [13],100
same,"Plant response rating, Barnyardgrass",[4]; [14],10
same,"Plant response rating, Barnyardgrass",[4]; [15],90
same,Pigweed plant response rating,[5]; [12],90
same,"Plant response rating, Pigweed",[5]; [13],100
same,"Plant response rating, Pigweed",[5]; [14],80
same,"Plant response rating, Pigweed",[5]; [15],90
same,Velvetleaf plant response rating,[6]; [12],100
same,"Plant response rating, Velvetleaf",[6]; [13],100
same,"Plant response rating, Velvetleaf",[6]; [14],50
same,"Plant response rating, Velvetleaf",[6]; [15],80
same,Corn plant response rating,corn (Zea mays); [12],0
same,"Plant response rating, Corn",corn (Zea mays); [13],20
same,"Plant response rating, Corn",corn (Zea mays); [14],0
same,"Plant response rating, Corn",corn (Zea mays); [15],30
same,Morningglory plant response rating,[7]; [12],80
same,"Plant response rating, Morningglory",[7]; [13],90
same,"Plant response rating, Morningglory",[7]; [14],0
same,"Plant response rating, Morningglory",[7]; [15],50
same,"Plant response rating, Barley",[8]; [16],0
same,"Plant response rating, Barley",[8]; [17],0
same,"Plant response rating, Barley",[8]; [19],0
same,Barley plant response rating,[8],0
same,"Plant response rating, Windgrass",[9]; [17],25
same,"Plant response rating, Windgrass",[9]; [19],30
same,"Plant response rating, Canarygrass",[10]; [16],0
same,"Plant response rating, Canarygrass",[10]; [17],0
same,"Plant response rating, Canarygrass",[10]; [19],5
same,Canarygrass plant response rating,[10],5
same,"Plant response rating, Chickweed",[11]; [16],80
same,"Plant response rating, Chickweed",[11]; [17],98
same,"Plant response rating, Chickweed",[11]; [19],100
same,Chickweed plant response rating,[11],100
